This assay concerns the target T1, Human IP6K1 (Homo sapiens, UniProt Q92551).
T1 construct: GST (N, cleaved yes); made in house; host or cells: C43 E. coli, pGEX-6P-2
Kind of assay: IP6K1 high-throughput screen of the Sigma LOPAC (ADP-Glo Max, single point).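 Also: final compound concentration 10µM in 5% DMSO.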 The format is biochemical.

[1] abbreviates: LOPAC single-point screen, ADP-Glo Max raw signal per well.
Where [2] appears, read: LOPAC single-point screen, Z-score against plate average and StDev.
Where [3] appears, read: LOPAC single-point screen, Z-score from raw signal with plate average and StDev.
Where [4] appears, read: Sigma LOPAC single-point screen, ADP-Glo Max raw signal per well.
Where [5] appears, read: Sigma LOPAC single-point screen, Z-score from plate average and StDev.
The mark [6] stands for this setting: LOPAC single-point screen, ADP-Glo Max luminescence raw signal per well.
The mark [7] stands for this setting: LOPAC single-point screen, Z-score relative to plate average and StDev.
The mark [8] stands for this setting: LOPAC single-point screen, Z-score from plate average and StDev.

Structures can show the parent of a compound that is named as a salt. Where two headings read alike, the source gives them in different places.

T1 sequence (Q92551 whole entry): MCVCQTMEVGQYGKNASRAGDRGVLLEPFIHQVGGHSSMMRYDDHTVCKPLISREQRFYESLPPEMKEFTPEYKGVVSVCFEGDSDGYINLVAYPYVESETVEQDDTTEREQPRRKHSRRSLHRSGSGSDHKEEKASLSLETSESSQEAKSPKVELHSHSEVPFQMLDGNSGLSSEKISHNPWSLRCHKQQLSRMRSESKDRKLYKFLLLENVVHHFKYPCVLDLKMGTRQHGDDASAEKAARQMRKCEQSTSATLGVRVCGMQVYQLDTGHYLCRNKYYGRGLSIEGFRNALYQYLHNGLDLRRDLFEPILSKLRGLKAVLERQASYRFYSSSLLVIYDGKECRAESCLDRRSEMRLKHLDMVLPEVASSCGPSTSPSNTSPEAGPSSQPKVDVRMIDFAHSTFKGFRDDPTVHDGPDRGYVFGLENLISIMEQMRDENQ

In the case of `CC(C)(C)c1ccc(S(=O)(=O)/C=C/C#N)cc1` [Bay 11-7085], the “Raw Signal” value under setting [1] is given as 58167. The Z-score under setting [2] is reported as 0.04472.
As to `C[C@H]1C[C@H]2[C@@H]3CCC4=CC(=O)C=C[C@]4(C)[C@@]3(Cl)[C@@H](O)C[C@]2(C)[C@@]1(O)C(=O)CO` [Beclomethasone], the “Raw Signal” value under setting [1] turned out to be 55439. The compound also yielded a Z-score under setting [3] of -0.4358.
Regarding `c1ccc2cc(-c3ncc[nH]3)ccc2c1` [Benazoline oxalate], under setting [4], the “Raw Signal” value was 61441. This compound also displayed a Z-score under setting [5] of 0.6214.
In the case of `COc1cccc(OC)c1OCCNCC1CSc2ccccc2O1` (stereo not drawn) [Benoxathian hydrochloride], the “Raw Signal” value under setting [1] came out at 57648. In addition, the Z-score under setting [2] is given as -0.04669.
Turning to `NC(CO)C(=O)NNCc1ccc(O)c(O)c1O` (stereo not drawn) [Benserazide hydrochloride], the “Raw Signal” value under setting [6] was determined as 50551. The compound further came in with a Z-score under setting [7] of -1.297.
Turning to `NC(=O)c1ccccc1` [Benzamide], the “Raw Signal” value under setting [6] is 54873. The compound also showed a Z-score under setting [7] of -0.5354.
On to `N=C(N)c1ccccc1` [Benzamidine hydrochloride], for which, under setting [1], the “Raw Signal” value was determined as 57181. The Z-score under setting [3] is -0.1289.
`NC(=NCc1ccccc1)NC(=O)c1nc(Cl)c(N)nc1N` [Benzamil hydrochloride]: the “Raw Signal” value under setting [1] was determined as 59018. For the same compound, the Z-score under setting [2] stood at 0.1946.
Take `CN1[C@@H]2CC[C@H]1C[C@@H](OC(c1ccccc1)c1ccccc1)C2` [Benztropine mesylate]: the “Raw Signal” value under setting [4] came out at 60233. Under setting [5], the Z-score is reported as 0.4086.
Consider `CC(C)COCC(CN(Cc1ccccc1)c1ccccc1)N1CCCC1` (stereo not drawn) [Bepridil hydrochloride], for which the “Raw Signal” value under setting [4] was found to be 60020. Further, the Z-score under setting [5] is 0.3711.
Regarding `CC(C)C[C@H](NC(=O)[C@@H](O)[C@H](N)Cc1ccccc1)C(=O)O` [Bestatin hydrochloride], the “Raw Signal” value under setting [1] worked out at 54023. In addition, the Z-score under setting [3] is listed as -0.2323.
For `C[N+](C)(C)CC=O` [Betaine aldehyde chloride], the “Raw Signal” value under setting [1] worked out at 58689. In addition, the Z-score under setting [2] amounted to 0.1367.
For `C[N+](C)(C)CC(=O)O` [Betaine hydrochloride], the “Raw Signal” value under setting [4] is on record as 62144. The Z-score under setting [5] came out at 0.7452.
In the case of `C[C@H]1C[C@H]2[C@@H]3CCC4=CC(=O)C=C[C@]4(C)[C@@]3(F)[C@@H](O)C[C@]2(C)[C@@]1(O)C(=O)CO` [Betamethasone], the “Raw Signal” value under setting [1] turned out to be 58863. Further, the Z-score under setting [2] is 0.1673.
As to `CC(C)NCC(O)COc1ccc(CCOCC2CC2)cc1` (stereo not drawn) [Betaxolol hydrochloride], the “Raw Signal” value under setting [1] was found to be 59138. Under setting [2], the Z-score was found to be 0.2157.
Turning to `CC(C[N+](C)(C)C)OC(N)=O` (stereo not drawn) [Bethanechol chloride], the “Raw Signal” value under setting [1] worked out at 59240. The compound also returned a Z-score under setting [2] of 0.2337.
As to `CC[N+](C)(C)Cc1ccccc1Br` [Bretylium tosylate], the “Raw Signal” value under setting [1] came to 56921. This compound registered a Z-score under setting [3] of -0.1747.
In the same order, the values of `C=CCc1ccccc1OCC(O)CNC1(C)CCC(C(C)(C)NC(=O)CBr)CC1` (stereo not drawn) [Bromoacetyl alprenolol menthane] are 55252 and -0.4687.
In the case of `C[N+](C)(C)CCOC(=O)CBr.[Br-]` [Bromoacetylcholine bromide], under setting [6], the “Raw Signal” value turned out to be 53767. Under setting [7], the Z-score is given as -0.7302.
Regarding `O=C1O/C(=C/Br)CCC1c1cccc2ccccc12` (stereo not drawn) [Bromoenol lactone], under setting [6], the “Raw Signal” value came to 52508. The Z-score under setting [7] is reported as -0.952.
As for `CCCC1O[C@@H]2C[C@H]3[C@@H]4CCC5=CC(=O)C=C[C@]5(C)[C@H]4[C@@H](O)C[C@]3(C)[C@]2(C(=O)CO)O1` (stereo partly drawn) [Budesonide], the “Raw Signal” value under setting [6] is on record as 54430. Besides, the Z-score under setting [7] is on record as -0.6135.
Take `CCCCNc1cc(C(=O)O)cc(S(N)(=O)=O)c1Oc1ccccc1` [Bumetanide]: under setting [4], the “Raw Signal” value is reported as 62300. The Z-score under setting [5] was found to be 0.7727.
Consider `CC(NC(C)(C)C)C(=O)c1cccc(Cl)c1` (stereo not drawn) [Bupropion hydrochloride], for which, under setting [1], the “Raw Signal” value was found to be 56700. The compound also showed a Z-score under setting [3] of -0.2137.
Take `O=C1CC2(CCCC2)CC(=O)N1CCCCN1CCN(c2ncccn2)CC1` [Buspirone hydrochloride]: the “Raw Signal” value under setting [4] came out at 60893. The Z-score under setting [5] was 0.5248.
In the same order, the values of `CCCN(CCC)C(=O)Cc1c(-c2ccc(Cl)cc2)nc2c(Cl)cc(Cl)cn12` [CB34] are 60254 and 0.4123.
Turning to `NC(=O)c1cc(N2CC2)c([N+](=O)[O-])cc1[N+](=O)[O-]` [CB 1954], the “Raw Signal” value under setting [1] was determined as 55279. The same compound displayed a Z-score under setting [3] of -0.4639.
For `CS(=O)(=O)O.Cn1cc(C(F)(F)F)nc1-c1ccc(OCC(O)CNCCOc2ccc(O)c(C(N)=O)c2)cc1` (stereo not drawn) [CGP 20712A methanesulfonate], the “Raw Signal” value under setting [4] is 57129. Also, the Z-score under setting [5] was determined as 0.3985.
As to `CC(C)(CO)Cc1cc(C(C)(C)C)c(O)c(C(C)(C)C)c1` [CGP-7930], the “Raw Signal” value under setting [4] came to 64858. The compound also had a Z-score under setting [5] of 1.223.
Turning to `CC(C)(C=O)Cc1cc(C(C)(C)C)c(O)c(C(C)(C)C)c1` [CGP-13501], under setting [1], the “Raw Signal” value stood at 59120. Under setting [2], this compound showed a Z-score of 0.2126.
For `CCn1cnc2c(Nc3cccc(Cl)c3)nc(N[C@@H]3CCCC[C@@H]3N)nc21.Cl` [CGP-74514A hydrochloride], under setting [1], the “Raw Signal” value is reported as 58874. Besides, the Z-score under setting [2] worked out at 0.1692.
On to `CN1CCN(c2nc3cc(C(F)(F)F)ccc3n3cccc23)CC1.O=C(O)/C=C\C(=O)O` [CGS-12066A maleate], for which the “Raw Signal” value under setting [4] was found to be 58347. In addition, under setting [5], the Z-score was determined as 0.6458.
Turning to `Nc1nc2ccc(Cl)cc2c2nc(-c3ccco3)nn12` [CGS-15943], the “Raw Signal” value turned out to be 60608 and the Z-score is listed as 1.105.
As to `CCNC(=O)[C@H]1O[C@@H](n2cnc3c(N)nc(NCCc4ccc(CCC(=O)O)cc4)nc32)[C@H](O)[C@@H]1O.Cl` [CGS-21680 hydrochloride], the “Raw Signal” value under setting [6] came to 62301. Under setting [8], the Z-score was 1.449.
With `C[C@H](Cc1ccc2c(c1)OC(C(=O)[O-])(C(=O)[O-])O2)NC[C@H](O)c1cccc(Cl)c1.[Na+].[Na+]` [CL 316,243], under setting [1], the “Raw Signal” value came to 56247. Besides, the Z-score under setting [3] is -0.2934.
As to `N#Cc1cc2nc([O-])c([O-])nc2cc1[N+](=O)[O-].[Na+].[Na+]` [CNQX disodium], the “Raw Signal” value under setting [1] is 53180. Under setting [3], this compound displayed a Z-score of -0.4035.
Take `CCc1cccc(N(C)C(N)=Nc2cccc3ccccc23)c1` [CNS-1102]: under setting [4], the “Raw Signal” value is 64774. Under setting [5], this compound came in with a Z-score of 1.208.
As for `CCCCCCC(C)(C)c1ccc([C@@H]2C[C@H](O)CC[C@H]2CCCO)c(O)c1` [CP55940], the “Raw Signal” value under setting [1] is given as 55459. This compound also had a Z-score under setting [3] of -0.4322.
Take `CC1(C)CCC(NC(=O)[C@@H](N)CCC(=O)O)CC1` [CR 2249]: the “Raw Signal” value under setting [1] is 52015. Also, the Z-score under setting [3] is reported as -0.3997.
As to `Cc1cc(C)c(NC(=O)C[C@H](CC(=O)O)c2cccc3ccccc23)c(C(=O)N2CCC3(CCCC3)CC2)c1` [CR 2945], the “Raw Signal” value under setting [1] came out at 55023. Moreover, the Z-score under setting [2] was found to be 0.1058.
`CCCCCCCCCCCCCCCCCCNC(=O)OCC(COP(=O)([O-])OCC[n+]1ccsc1)OC` (stereo not drawn) [CV-3988]: the “Raw Signal” value under setting [6] was 52703. Under setting [7], this compound came in with a Z-score of -0.6452.
Consider `O=C(c1ccc2c(c1)OCCO2)N1CCCCC1` [CX 546], for which the “Raw Signal” value under setting [4] turned out to be 57767. Further, the Z-score under setting [5] is given as 0.528.
For the compound `O=C(O)/C=C/c1ccc(O)c(O)c1` [Caffeic Acid], under setting [1], the “Raw Signal” value is 56687. This compound also returned a Z-score under setting [3] of -0.216.
For the compound `O=C(/C=C/c1ccc(O)c(O)c1)OCCc1ccccc1` [Caffeic acid phenethyl ester], under setting [6], the “Raw Signal” value was 53915. Under setting [7], this compound returned a Z-score of -0.7042.
With `Cn1c(=O)c2c(ncn2C)n(C)c1=O` [Caffeine], the “Raw Signal” value under setting [1] was 57928. Also, the Z-score under setting [2] came out at 0.002624.
As for `CNc1ccc2oc(C[C@H]3O[C@@]4(CC[C@H]3C)O[C@H]([C@H](C)C(=O)c3ccc[nH]3)[C@H](C)C[C@H]4C)nc2c1C(=O)O` [Calcimycin], the “Raw Signal” value under setting [6] came to 66206. Under setting [8], the Z-score was determined as 1.461.
For the compound `Clc1ccc(C(c2ccc(Cl)cc2)n2cc[n+](CC(OCc3ccc(Cl)cc3Cl)c3ccc(Cl)cc3Cl)c2)cc1` (stereo not drawn) [Calmidazolium chloride], the “Raw Signal” value under setting [1] is 57343. Also, the Z-score under setting [3] is -0.1004.
`CC1(C(=O)O)C2CCC(O2)C1(C)C(=O)O` (stereo not drawn) [Cantharidic Acid]: the “Raw Signal” value under setting [4] was determined as 61779. Under setting [5], the Z-score is 0.6809.
Turning to `C[C@@]12C(=O)OC(=O)[C@]1(C)[C@H]1CC[C@@H]2O1` [Cantharidin], under setting [4], the “Raw Signal” value is on record as 61165. Besides, the Z-score under setting [5] is given as 0.5727.
With `Oc1cc2c(cc1O)CN(C(=S)NCCc1ccc(Cl)cc1)CCC2` [Capsazepine], under setting [1], the “Raw Signal” value was found to be 54995. Besides, the Z-score under setting [2] is recorded as -0.03494.
In the case of `C[C@H](CS)C(=O)N1CCC[C@H]1C(=O)O` [Captopril], the “Raw Signal” value under setting [1] came out at 58254. Under setting [2], the Z-score is 0.06004.
As for `C[N+](C)(C)CCOC(N)=O` [Carbachol], the “Raw Signal” value under setting [4] was determined as 62361. Under setting [5], this compound registered a Z-score of 0.7834.
Turning to `NC(=O)N1c2ccccc2C=Cc2ccccc21` [Carbamazepine], the “Raw Signal” value under setting [4] worked out at 60604. Under setting [5], this compound displayed a Z-score of 0.4739.
As for `CCN(CC)CCOCCOC(=O)C1(c2ccccc2)CCCC1` [Carbetapentane citrate], the “Raw Signal” value under setting [6] came out at 67390. The same compound registered a Z-score under setting [8] of 1.669.
As for `N.N.O=C([O-])C1(C(=O)[O-])CCC1.[Pt+2]` [Carboplatin], under setting [6], the “Raw Signal” value is recorded as 53949. The compound also displayed a Z-score under setting [7] of -0.6982.

For the origin of these results see publication PMC5706701, “Development of a homogenous high-throughput assay for inositol hexakisphosphate kinase 1 activity” (PLoS ONE, 2017).
